Measurements published in patent US9669003B2, “Use of flavone and flavanone derivatives in preparation of sedative and hypnotic drugs” (priority 2012, dated 2017).
Marks after values point to notes of the source that are not given here.

Columns and labels:
Type in all cases: in vivo
Kunming mice [1] = assay: Influence on autonomic activity of normal mice (ZIL-2 mice autonomic activity meter, counts within 10 min); conditions: intragastric, x ± s, n = 10; for Times of activities in 1 h after drug administration/10 min: 1 h after administration; for Times of activities in 2 h after drug administration/10 min: 2 h after administration; for Times of activities in 24 h after drug administration/10 min: 24 h after administration
Method in brief: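 Kunming mice (10 per group, half each sex) were dosed at 25, 50 or 100 mg/kg in 0.5% CMC-Na. Spontaneous activity counts over 10 min were recorded at 1 h, 2 h and 24 h post-dose. Groups were compared by ANOVA with Dunnett's test after Levene's check.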

Kunming mice [2] = assay: Influence on hypnosis effect with pentobarbital sodium doses below the threshold (25 mg/kg i.p.); conditions: pentobarbital sodium 25 mg/kg i.p. 60 min later, sleep observed in 30 min, n = 10
Method in brief: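 Kunming mice (10 per group, half female) given single oral doses of 25, 50 or 100 mg/kg in 0.5% CMC-Na; 60 min later pentobarbital sodium 25 mg/kg i.p. Sleep (righting reflex lost >1 min) scored within 30 min as percentage asleep, χ2 test.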

Kunming mice [3] = assay: Influence on hypnosis effect with pentobarbital sodium doses at the threshold (50 mg/kg i.p.); conditions: pentobarbital sodium 50 mg/kg i.p. 60 min later, x ± s, n = 10
Method in brief: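 Kunming mice (10/group, half each sex) received compound in 0.5% CMC-Na intragastrically at 25, 50 or 100 mg/kg; 60 min later given 0.3% sodium pentobarbital 50 mg/kg i.p. Sleep latency and duration recorded by loss of righting reflex over 1 min; ANOVA and χ2 for sleep incidence.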

[4] = test drug 25 mg/kg intragastric single dose
[5] = test drug 50 mg/kg intragastric single dose
[6] = test drug 100 mg/kg intragastric single dose
[7] = 25 mg/kg intragastric single dose
[8] = 50 mg/kg intragastric single dose
[9] = 100 mg/kg intragastric single dose

Structure (SMILES) | Times of activities in 1 h after drug administration/10 min (Kunming mice [1]; 25 mg/kg) | Times of activities in 2 h after drug administration/10 min (Kunming mice [1]; 25 mg/kg) | Times of activities in 24 h after drug administration/10 min (Kunming mice [1]; 25 mg/kg) | Times of activities in 1 h after drug administration/10 min (Kunming mice [1]; 50 mg/kg) | Times of activities in 2 h after drug administration/10 min (Kunming mice [1]; 50 mg/kg) | Times of activities in 24 h after drug administration/10 min (Kunming mice [1]; 50 mg/kg) | Times of activities in 1 h after drug administration/10 min (Kunming mice [1]; 100 mg/kg) | Times of activities in 2 h after drug administration/10 min (Kunming mice [1]; 100 mg/kg) | Times of activities in 24 h after drug administration/10 min (Kunming mice [1]; 100 mg/kg) | Number of sleeping animals (Kunming mice [2]; [4]) | rate of sleeping (%) (Kunming mice [2]; [4]) | Number of sleeping animals (Kunming mice [2]; [5]) | rate of sleeping (%) (Kunming mice [2]; [5]) | Number of sleeping animals (Kunming mice [2]; [6]) | rate of sleeping (%) (Kunming mice [2]; [6]) | duration of sleep (Kunming mice [3]; [7]) [min] | time to sleep (Kunming mice [3]; [7]) [min] | duration of sleep (Kunming mice [3]; [8]) [min] | time to sleep (Kunming mice [3]; [8]) [min] | duration of sleep (Kunming mice [3]; [9]) [min] | other results
O=c1cc(-c2cc(O)c(Oc3ccccc3)c(CCCCCCCCCCCCCCCCCCCCCl)c2)oc2cc(C#Cc3ccccc3)cc([N+](=O)[O-])c12 [Example 16] | 319.2 ± 55.4 /10 min | 290.6 ± 41.2 /10 min | 313.5 ± 68.2 /10 min | 295.5 ± 41.3 /10 min | 250.4 ± 41.4 /10 min | 314.1 ± 82.3 /10 min | 273.4 ± 48.3 /10 min | 224.7 ± 46.3 /10 min | 324.7 ± 79.7 /10 min | 2 | 20% | 4 | 40* % | 6 | 60** % | 25.69 ± 27.26 | 5.48 ± 2.25 | 48.11 ± 25.41 | 4.21 ± 1.53 | 55.62 ± 19.72 | time to sleep (Kunming mice [3]; [9]): 3.86 ± 1.45 min
COc1cc(OC)c2c(=O)cc(-c3ccccc3O)oc2c1OC [Example 3, 2′-hydroxyl-5,7,8-trimethoxyl-flavone] | 283.4 ± 45.8 /10 min | 264.7 ± 46.1 /10 min | 305.8 ± 80.9 /10 min | 236.2 ± 41.5 /10 min | 246.3 ± 49.1 /10 min | 298.8 ± 71.0 /10 min | 180.5 ± 35.3 /10 min | 174.7 ± 40.5 /10 min | 286.9 ± 90.4 /10 min | 3 | 30% | 4 | 40* % | 6 | 60** % | 39.65 ± 18.32 | 4.41 ± 1.43 | 56.76 ± 24.86 | 3.90 ± 1.93 | 59.76 ± 25.75 | time to sleep (Kunming mice [3]; [9]): 3.86 ± 1.22 min
CCCc1ccc(C2CC(=O)c3c(O)cc([N+](=O)[O-])cc3O2)cc1OC (stereo not drawn) [Example 61] | 317.3 ± 50.1 /10 min | 289.4 ± 40.2 /10 min | 301.9 ± 77.5 /10 min | 295.1 ± 41.9 /10 min | 250.7 ± 42.8 /10 min | 300.2 ± 91.3 /10 min | 287.1 ± 45.9 /10 min | 221.5 ± 45.8 /10 min | 317.9 ± 80.3 /10 min | 5 | 50** % | 6 | 60** % | 8 | 80*** % | 38.44 ± 15.12 | 4.42 ± 1.43 | 58.53 ± 27.42 | 3.92 ± 1.31 | 58.47 ± 24.40 | time to sleep (Kunming mice [3]; [9]): 3.79 ± 1.44 min
COc1cc(C2Oc3c(cc(OC)c(OC)c3OC)C(=O)C2OC)c(O)c(OC)c1OC (stereo not drawn) [Example 69, 6′-hydroxyl-3,6,7,8,3′,4′,5′-hepta methoxyl-flavanone] | 322.3 ± 51.3 /10 min | 278.3 ± 40.3 /10 min | 299.1 ± 80.7 /10 min | 298.0 ± 41.5 /10 min | 251.7 ± 39.4 /10 min | 309.1 ± 91.0 /10 min | 289.3 ± 50.7 /10 min | 235.8 ± 47.4 /10 min | 320.4 ± 80.4 /10 min | 3 | 30% | 5 | 50* % | 7 | 70** % | 31.77 ± 22.78 | 4.98 ± 1.88 | 57.73 ± 18.49 | 4.27 ± 1.62 | 64.09 ± 31.23 | time to sleep (Kunming mice [3]; [9]): 3.87 ± 1.78 min
CC=Cc1cc(C(=O)O)c2c(=O)cc(-c3ccc(C#N)c(C(=O)O)c3)oc2c1 [Example 40] | 291.4 ± 51.5 /10 min | 276.0 ± 48.7 /10 min | 311.2 ± 79.9 /10 min | 245.7 ± 44.5 /10 min | 223.6 ± 43.8 /10 min | 288.9 ± 68.9 /10 min | 145.7 ± 39.8 /10 min | 169.8 ± 40.5 /10 min | 301.5 ± 91.8 /10 min | 4 | 40* % | 6 | 60** % | 7 | 70** % | 21.71 ± 26.77 | 5.32 ± 2.47 | 27.68 ± 27.86 | 5.13 ± 2.64 | 61.35 ± 45.27 | time to sleep (Kunming mice [3]; [9]): 4.92 ± 1.26 min
COc1ccc(C2CC(=O)c3cc(OC)c(OC)c(OC)c3O2)cc1OC (stereo not drawn) [Example 45, 6,7,8,3′,4′-penta methoxyl-flavanone] | 235.6 ± 44.5 /10 min | 223.2 ± 41.4 /10 min | 299.2 ± 61.3 /10 min | 136.6 ± 40.5 /10 min | 123.3 ± 47.6 /10 min | 291.5 ± 60.4 /10 min | 112.5 ± 35.4 /10 min | 105.6 ± 48.5 /10 min | 288.8 ± 69.5 /10 min | 5 | 50** % | 6 | 60** % | 10 | 100*** % | 59.67 ± 19.87 | 4.19 ± 1.78 | 66.42 ± 28.90 | 3.26 ± 1.24 | 90.03 ± 23.72 | time to sleep (Kunming mice [3]; [9]): 2.17 ± 1.14 min
